Reference: US20240027453A1, “METHOD FOR DETECTION AND QUANTITATIVE MONITORING OF INFECTIONS WITH HERPESVIRUSES” (The Trustees of Princeton University, priority 2020, published 2024)

Experiments:
HSV-1 [1] = assay: TRUSTED PRM assay of HSV-1 viral protein levels after small molecule treatment; type: cell-based; conditions: for DBP (P04296) protein level / TK (P03176) protein level / UL8 (P10192) protein level / UL12 (P04294) protein level / UL30 (P04293) protein level / UL42 (P10226) protein level / US3 (P04413) protein level: E; for DBP (P04296) protein level / TK (P03176) protein level / UL8 (P10192) protein level / UL12 (P04294) protein level / UL30 (P04293) protein level / UL42 (P10226) protein level / US3 (P04413) protein level / ICP0 (P08393) protein level / ICP4 (P08392) protein level / ICP22 (P04485) protein level / UL54 (P10238) protein level / CVC2 (P10209) protein level / UL26 (P10210) protein level / UL48 (P06492) protein level / UL49 (P10233) protein level / gB (P10211) protein level / gI (P06487) protein level: FIG. 8A; for ICP0 (P08393) protein level / ICP4 (P08392) protein level / ICP22 (P04485) protein level / UL54 (P10238) protein level: IE; for CVC2 (P10209) protein level / UL26 (P10210) protein level / UL48 (P06492) protein level / UL49 (P10233) protein level / gB (P10211) protein level / gI (P06487) protein level: L
Protocol: (§1) In example herpesvirus PRM assay methods shown herein, cell pellets were lysed in 2% SDS, 100 mM NaCl, 0.5 mM EDTA, 50 mM Tris, pH 8.2, and 50 μg of protein was reduced and alkylated with 25 mM TCEP and 50 mM CAM respectively for 20 min at 70° C. Proteins were then precipitated via methanol chloroform precipitation (Wessel & Flugg, Anal Biochem. 138(1):141-143, 1984), resuspended in 50 mM HEPES, pH 8.2 and digested overnight with trypsin (50:1 protein:enzyme w/w ratio). Digested peptides were desalted by SDB-RPS StageTip as previously described (Lum et al., Cell Syst., 7(6):[…], 2018; Greco et al., Methods Mol Biol 1410:39-63, 2016; Federspiel & Cristea, Methods Mol Biol., 1977:115-143, 2019).
(§2) Peptides (1.0 μg on column) were analyzed by LC-MS/MS using a Dionex Ultimate 3000 UHPLC coupled online to an EASYSpray ion source and a Q Exactive HF. Peptides were separated on an EASYSpray C18 column (75 μm×25 cm) heated to 50° C. using a linear gradient of 5% B to 32% B over 60 min at a flow rate of 250 nL/min and were ionized at 1.7 kv. Mobile phase A consisted of 0.1% FA in H2O and mobile phase B consisted of 0.1% FA, 2.9% H2O in ACN.
(§3) The PRM method was controlled by a peptide inclusion list with retention time windows of 6 min for selected precursor ions.
(§4) The PRM assay was developed and analyzed using the open-source software Skyline (Maclean et al., Bioinformatics 26(7):966-968, 2010). Summed area under the curve of 3-4 transitions per peptide was used for quantitation. Targeted peptides were normalized to host protein loading control peptides. Peptide values for each sample were scaled to the average of each peptide across all runs. The average of multiple peptides was used as the inferred value for the protein measurement when more than one peptide was quantified (Federspiel et al., PLoS Biol. 17(9):e3000437. Doi: 10.1371/journal.pbio.3000437). PRM quantitation data were graphed using the Python Seaborn and Matplotlib libraries.
(§5) MRC5 primary human fibroblasts (HFs) (ATCC CCL-171) were used as the model system for HSV-1 and HCMV infections and were cultured in complete growth medium (DMEM supplemented with 10% fetal bovine serum and 1% penicillin-streptomycin antibiotics) at 37° C. and 5% CO2. iSLK.219 cells harboring latent KSHV (a gift from Dr. Britt Glaunsinger, University of California, Berkeley) were grown in complete growth medium supplemented with 500 μg/ml hygromycin (ThermoFisher Scientific, 10687010) at 37° C. and 5% CO2. All cells were used for experiments within a maximum of 10 passages.
(§6) Wild type HSV-1 strain 17+ (a gift from Beate Sodeik, Hannover Medical School, Hannover, Germany) was propagated as previously described (Diner et al., 2015). Briefly, PO stocks were generated by electroporating pBAC-HSV-1 into U-2 OS cells. […] In a similar manner, wild type HCMV strain AD169 was produced from BAC electroporation into HFs and working stocks were propagated by infecting HFs at a low level. In both cases, cell-associated virus was released by sonication, combined with supernatant virus, then concentrated by ultracentrifugation (20,000 rpm, 2 hours, 4° C. with SW28 swinging bucket rotor [Beckman Coulter]) over a 10% ficoll (HSV-1) or 20% sorbitol (HCMV) cushion. Virus stock titers were determined by plaque assay for HSV-1 or tissue culture infectious dose (TCID50) for HCMV and infections were performed at a multiplicity of infection (MOI) of 3.
(§7) 12 hours prior to virus infection or reactivation, cells were treated with either the small molecule drug or DMSO/PBS control at an equivalent volume. […] For infection cycles lasting longer than 24 hours, small molecule drugs were re-added to the cell culture medium every 24 hours. Upon collection, cells were rinsed with PBS, scraped into a microcentrifuge tube, pelleted by centrifugation, and rinsed again with PBS.

HSV-1 [2] = conditions: in MRC5 cells; cited from earlier work
HCMV [3] = conditions: cited from earlier work
iSLK.219 cell line = assay: Toxicity to the iSLK.219 cell line; type: cell-based; conditions: 50 μM
HCMV [4] = type: cell-based
Protocol: as §1, §2, §3, §4, §5, §6, §7

[5] = 1 μM, by and after 12 HPI, vs DMSO

Nc1nc2c(ncn2COCCO)c(=O)[nH]1 [ACV, acyclovir]
HSV-1 late gene expression (HSV-1 [1]): reduction | effect on IE HSV-1 protein levels (HSV-1 [1]; 1 μM): little effect | levels of HSV-1 proteins DBP, UL42, UL30, UL8, UL12 and UL48 (HSV-1 [1]; 1 μM): significant reduction | decrease in levels of E HSV-1 proteins (HSV-1 [1]; [5]): ~20% | decrease in levels of L HSV-1 proteins (HSV-1 [1]; [5]): ~35% | expression of IE and E HSV-1 genes (HSV-1 [1]; 6 HPI): increase | IC50 (HSV-1 [2]): 2000 to 3000 nM

Oc1ccc(/C=C/c2cc(O)cc(O)c2)cc1 [Res]
DBP (P04296) protein level (HSV-1 [1]; timepoint 2): 0.02121 | TK (P03176) protein level (HSV-1 [1]; timepoint 2): 0.03832 | UL8 (P10192) protein level (HSV-1 [1]; timepoint 2): 0.0171 | UL12 (P04294) protein level (HSV-1 [1]; timepoint 2): 0.01763 | UL30 (P04293) protein level (HSV-1 [1]; timepoint 2): 0.03876 | UL42 (P10226) protein level (HSV-1 [1]; timepoint 2): 0.003041 | US3 (P04413) protein level (HSV-1 [1]; timepoint 2): 0.01605 | ICP0 (P08393) protein level (HSV-1 [1]; timepoint 2): 0.1622 | ICP4 (P08392) protein level (HSV-1 [1]; timepoint 2): 0.1073 | ICP22 (P04485) protein level (HSV-1 [1]; timepoint 2): 0.015 | UL54 (P10238) protein level (HSV-1 [1]; timepoint 2): 0.0667 | CVC2 (P10209) protein level (HSV-1 [1]; timepoint 2): 0.01003 | UL26 (P10210) protein level (HSV-1 [1]; timepoint 2): 0.003453 | UL48 (P06492) protein level (HSV-1 [1]; timepoint 2): 0.007183 | UL49 (P10233) protein level (HSV-1 [1]; timepoint 2): 0.009894 | gB (P10211) protein level (HSV-1 [1]; timepoint 2): 0.0128 | gI (P06487) protein level (HSV-1 [1]; timepoint 2): 0.00718 | DBP (P04296) protein level (HSV-1 [1]; timepoint 6): 0.9121 | TK (P03176) protein level (HSV-1 [1]; timepoint 6): 0.9707 | UL8 (P10192) protein level (HSV-1 [1]; timepoint 6): 1.056 | UL12 (P04294) protein level (HSV-1 [1]; timepoint 6): 0.7418 | UL30 (P04293) protein level (HSV-1 [1]; timepoint 6): 1.353 | UL42 (P10226) protein level (HSV-1 [1]; timepoint 6): 0.2866 | US3 (P04413) protein level (HSV-1 [1]; timepoint 6): 0.616 | ICP0 (P08393) protein level (HSV-1 [1]; timepoint 6): 0.5333 | ICP4 (P08392) protein level (HSV-1 [1]; timepoint 6): 1.063 | ICP22 (P04485) protein level (HSV-1 [1]; timepoint 6): 0.7429 | UL54 (P10238) protein level (HSV-1 [1]; timepoint 6): 0.9415 | CVC2 (P10209) protein level (HSV-1 [1]; timepoint 6): 0.2592 | UL26 (P10210) protein level (HSV-1 [1]; timepoint 6): 0.1986 | UL48 (P06492) protein level (HSV-1 [1]; timepoint 6): 0.1816 | UL49 (P10233) protein level (HSV-1 [1]; timepoint 6): 0.428 | gB (P10211) protein level (HSV-1 [1]; timepoint 6): 0.5098 | gI (P06487) protein level (HSV-1 [1]; timepoint 6): 0.5705 | TK (P03176) protein level (HSV-1 [1]; timepoint 12): 1.24 | UL8 (P10192) protein level (HSV-1 [1]; timepoint 12): 0.9123 | UL12 (P04294) protein level (HSV-1 [1]; timepoint 12): 0.8878 | UL30 (P04293) protein level (HSV-1 [1]; timepoint 12): 1.001 | UL42 (P10226) protein level (HSV-1 [1]; timepoint 12): 0.7743 | US3 (P04413) protein level (HSV-1 [1]; timepoint 12): 1.156 | ICP0 (P08393) protein level (HSV-1 [1]; timepoint 12): 1.108 | ICP4 (P08392) protein level (HSV-1 [1]; timepoint 12): 1.101 | ICP22 (P04485) protein level (HSV-1 [1]; timepoint 12): 1.241 | UL54 (P10238) protein level (HSV-1 [1]; timepoint 12): 1.026 | CVC2 (P10209) protein level (HSV-1 [1]; timepoint 12): 0.7067 | UL26 (P10210) protein level (HSV-1 [1]; timepoint 12): 0.7549 | UL48 (P06492) protein level (HSV-1 [1]; timepoint 12): 0.8411 | UL49 (P10233) protein level (HSV-1 [1]; timepoint 12): 1.283 | gB (P10211) protein level (HSV-1 [1]; timepoint 12): 1.286 | gI (P06487) protein level (HSV-1 [1]; timepoint 12): 0.956 | TK (P03176) protein level (HSV-1 [1]; timepoint 18): 0.9806 | UL8 (P10192) protein level (HSV-1 [1]; timepoint 18): 0.8259 | UL12 (P04294) protein level (HSV-1 [1]; timepoint 18): 0.7425 | UL30 (P04293) protein level (HSV-1 [1]; timepoint 18): 0.7926 | UL42 (P10226) protein level (HSV-1 [1]; timepoint 18): 0.7837 | US3 (P04413) protein level (HSV-1 [1]; timepoint 18): 0.9457 | ICP0 (P08393) protein level (HSV-1 [1]; timepoint 18): 1.159 | ICP4 (P08392) protein level (HSV-1 [1]; timepoint 18): 1.049 | ICP22 (P04485) protein level (HSV-1 [1]; timepoint 18): 1.213 | UL54 (P10238) protein level (HSV-1 [1]; timepoint 18): 0.8148 | CVC2 (P10209) protein level (HSV-1 [1]; timepoint 18): 0.601 | UL26 (P10210) protein level (HSV-1 [1]; timepoint 18): 0.8898 | UL48 (P06492) protein level (HSV-1 [1]; timepoint 18): 0.9275 | gB (P10211) protein level (HSV-1 [1]; timepoint 18): 1.306 | gI (P06487) protein level (HSV-1 [1]; timepoint 18): 1.003

Oc1ccc(/C=C/c2cc(O)cc(O)c2)cc1 [trans-Resveratrol]
decrease in HCMV titers (HCMV [3]; […] CAY10602, 50 μM trans-Resveratrol): ~50% | HCMV titers (HCMV [3]): decreased | toxicity to the iSLK.219 cell line (iSLK.219 cell line): toxic | levels of HSV-1 viral transactivators ICP4 and UL48 (VP16) (HSV-1 [1]; 10 μM EX-527, 50 μM trans-Resveratrol): downregulated | decrease in HSV-1 protein levels (HSV-1 [1]; 50 μM): 30-40% | HCMV UL122 (IE2) and UL123 (IE1) levels (HCMV [4]): decreases | HCMV UL123 levels (HCMV [4]; 24 HPI, […] CAY10602, 50 μM trans-Resveratrol): unchanged | HCMV UL26 levels (HCMV [4]; 48 HPI, […] CAY10602, 50 μM trans-Resveratrol): decreased | HCMV viral protein production (HCMV [4]; by 48 HPI): global reduction | HCMV UL99 levels (HCMV [4]; by 72 HPI, […] CAY10602, 50 μM trans-Resveratrol): robustly decreased | global decrease in HCMV viral protein levels (HCMV [4]; by 120 HPI, […] CAY10602, 50 μM trans-Resveratrol): ~70%
